# Article PMC7156456, “Modulation of virus-induced NF-κB signaling by NEMO coiled coil mimics” (Nature Communications, 2020)
# Peptide text beside a SMILES is read from it. * marks the point of attachment. Cbz = O=C(OCc1ccccc1)*
# Tests used:
# [1] = molecular target: T1, vFLIP/NEMO interaction (Human herpesvirus 8 type P, UniProt F5HEZ4); experiment: biochemical; format: binding, Kaposi's sarcoma herpesvirus (KSHV)
# T1 construct: vFLIP (1-178) and NEMO (150-272) were cloned into pET28a vector; made in house; host or cells: E. coli BL21(DE3)
# T1 sequence (F5HEZ4 1-178): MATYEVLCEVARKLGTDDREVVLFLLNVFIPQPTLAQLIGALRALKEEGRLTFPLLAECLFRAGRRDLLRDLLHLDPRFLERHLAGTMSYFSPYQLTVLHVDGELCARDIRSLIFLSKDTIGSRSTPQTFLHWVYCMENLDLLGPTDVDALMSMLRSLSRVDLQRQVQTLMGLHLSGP
# Description: For the competition assay, two-fold serial dilution of the different NEMO mimetics were prepared in DMSO then diluted in TR-FRET buffer to 5× and added in triplicates to a 384 low volume well plate. His-MBP vFLIP diluted to 5× in TR-FRET buffer (250 nM) was then added to each well and incubated for 15 min at RT. His-Biotinylated NEMO diluted to 5× in TR-FRET buffer (250 nM) was the added to the mixture followed by addition of 5× or 200 nM) streptavidin-XL665 and (5× or 1 nM) of the antibody-tagged fluorophore anti-MBPK labeled with Europium cryptate). The final concentration of the NEMO mimetics ranged from 0.195 μM to 100 μM. Total assay volume was 20 μL. The plate was incubated for 1 h at RT then read using BioTek Synergy NEO. Titration of non-biotinylated NEMO (0.0195-10 μM) was used as a positive control in every run. The effect of the peptides on vFLIP/NEMO interaction was normalized to the control and expressed as percent inhibition (% of control):
# %ofcontrol=FRETCHD−FRETbackground/FRETcontrol−FRETbackground where FRET control is the TR-FRET signal in DMSO treated wells (highest signal) and FRET background is TR-FRET signal in wells containing the highest concentration of non-biotinylated NEMO (10 μM) which provides the lowest signal. Normalized TR-FRET data was plotted using Graphpad Prism.
# Supplementary Figure 1. Schematic representation of the Time-resolved Fluorescence Energy Transfer (TR-FRET) binding assay. (a) Complexes of recombinant his-MBP vFLIP, biotinylated His-NEMO, Europium cryptate conjugated anti-MBP antibody and strepavidin XL665 were used to generate proximity for a FRET signal between the donor fluorophore Europium cryptate and the acceptor fluorophore strepavidin XL665. The TR-FRET signal was calculated as a ratiometric measurement of the acceptor fluoroscence emission at 665nm over the donor emission at 620nm multiplied by 10000. […] (d) Size exclusion chromatography of NEMO-vFLIP complex indicating a shift to the left in absorbance at 280nm when NEMO binds specifically to vFLIP. […]
# [2] = system: vFLIP and NEMO levels in Namalwa Mut vFLIP cell line; experiment: vFLIP protein stability, Namalwa Mut vFLIP cell line; format: cell-based; conditions: 5 μM, within 2 h of treatment
# Description: vFLIP protein stability and turnover was measured by treating Namalwa WT vFLIP and NF-kB dead vFLIP mutant cell lines in the presence or absence of 5 μM of the proteasomal inhibitor MG-132 (Calbiochem cat 474790) and 100 μg/mL of the protein synthesis inhibitor cycloheximide (Sigma-Aldrich, cat. 66-81-9). Cells were harvested at the indicated time intervals and lysed in RIPA buffer and supernatants were analyzed by immunoblotting.
# [3] = molecular target: full length NEMO (Homo sapiens, UniProt Q9Y6K9); experiment: Fluorescence polarization direct binding assay, NEMO control
# Chain of full length NEMO (Q9Y6K9 193-252 limits assumed): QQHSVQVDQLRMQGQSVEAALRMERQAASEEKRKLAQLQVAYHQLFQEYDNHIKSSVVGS
# Description: The relative affinity of FITC-CHD3^NEMO to MBP-vFLIP were determined using fluorescence polarization-based direct binding assay. The polarization experiments were performed using a DTX 880 Multimode Detector (Beckman) at 25 °C with excitation and emission wavelengths of 485 and 525 nm, respectively. Each polarization experiment was performed in a 96-well round bottom plate (Greiner) in assay buffer: 20 mM Tris-HCl, 150 mM NaCl, 0.5 mM TCEP, 10% glycerol, 0.1% pluronic acid, pH 8. The binding affinity (KD) values reported for each peptide are from experiments performed in triplicate. Raw values were fit to a sigmoidal dose-response nonlinear regression model in Graphad Prism 6.0.
# All binding experiments with FITC-labeled CHD peptide to MBP-vFLIP were performed under the same conditions. Briefly, serial dilutions of MBP-vFLIP were made from 75 μM into 100 nM of FITC-labeled CHD peptide in assay buffer. KD was determined using the following equation[56]: KD=RT×1−FSB+LST×FSB2/FSB−LST where, […]
# [4] = system: BC-1 PEL cells; experiment: Live cell confocal microscopy, cellular uptake; format: cell-based
# Description: Cells were then added to 35 mm glass bottom MatTek poly-lysine coated plates (p356c-0-10C) and immunofluorescence images were captured using LSM880 confocal miscroscope with Airyscan resolution detector, spectral detector and incubation. Images were processed using Fiji software (Supplementary Fig. 11).
# [5] = system: BC-3; set-up: method as in earlier work; conditions: BC-3, PEL, KSHV+; ref 2,3,4 (supplement); read-out: PU-H71 LC50; cited from earlier work
# [6] = system: BC-1; set-up: method as in earlier work; conditions: BC-1, PEL, KSHV+/EBV+; ref 2,3,4 (supplement); read-out: PU-H71 LC50; cited from earlier work
# [7] = system: BC-2; set-up: method as in earlier work; conditions: BC-2, PEL, KSHV+/EBV+; ref 2,3,4 (supplement); read-out: PU-H71 LC50; cited from earlier work
# [8] = system: Namalwa; set-up: method as in earlier work; conditions: Burkitt, EBV+, ref 2,3,4 (supplement), read-out: PU-H71 LC50; cited from earlier work
# [9] = system: BCBL-1; set-up: method as in earlier work; conditions: BCBL-1, PEL, KSHV+; ref 2,3,4 (supplement); read-out: PU-H71 LC50; cited from earlier work
smiles,measurement,setting,value
CC[C@H](C)[C@H](NC(=O)[C@H](C)NC(=O)[C@H](CCC(=O)O)NC(C)=O)C(=O)N[C@@H](CCCNC(=N)N)C(=O)N[C@@H](CCC(N)=O)C(=O)N[C@@H](CC(C)C)C(=O)N[C@@H](Cc1c[nH]c2ccccc12)C(=O)N[C@@H](CCC(=O)O)C(=O)N[C@@H](CCC(=O)NC1CCCCC1)C(=O)N[C@H](C(=O)N[C@@H](CCCNC(=N)N)C(=O)N[C@@H](CCCNC(=N)N)C(=O)N[C@@H](CC(C)C)C(=O)N[C@@H](CCCCn1cc(COCc2cn(CCCC[C@H](NC(=O)[C@H](CCCNC(=N)N)NC(=O)[C@H](Cc3ccccc3)NC(=O)[C@H](CC(C)C)NC(=O)[C@H](CCCNC(=N)N)NC(=O)[C@H](C)NC(=O)[C@@H](NC(=O)[C@H](CCC(=O)O)NC(C)=O)[C@@H](C)CC)C(=O)N[C@H](C(=O)N[C@@H](CC(=O)O)C(=O)N[C@@H](CCC(=O)O)C(=O)N[C@@H](CC(C)C)C(=O)N[C@H](C(=O)N[C@@H](CCCNC(=N)N)C(N)=O)[C@@H](C)CC)[C@@H](C)CC)nn2)nn1)C(N)=O)[C@@H](C)CC [CHD4^NEMO],Ki,[1],> 50000 nM
CC[C@H](C)[C@H](NC(=O)[C@H](C)NC(=O)[C@H](CCC(=O)O)NC(C)=O)C(=O)N[C@@H](CCCNC(=N)N)C(=O)N[C@@H](CCC(N)=O)C(=O)N[C@@H](CC(C)C)C(=O)N[C@@H](Cc1ccc(O)cc1)C(=O)N[C@@H](CCC(=O)O)C(=O)N[C@@H](CCC(=O)O)C(=O)N[C@H](C(=O)N[C@@H](CCCNC(=N)N)C(=O)N[C@@H](CC(N)=O)C(=O)N[C@@H](CC(C)C)C(=O)N[C@@H](CCCCn1cc(COCc2cn(CCCC[C@H](NC(=O)[C@H](CCCNC(=N)N)NC(=O)[C@H](Cc3ccccc3)NC(=O)[C@H](CC(C)C)NC(=O)[C@H](CCCNC(=N)N)NC(=O)[C@H](Cc3c[nH]cn3)NC(=O)[C@@H](NC(=O)[C@H](CCC(=O)O)NC(C)=O)[C@@H](C)CC)C(=O)N[C@H](C(=O)N[C@@H](CC(=O)O)C(=O)N[C@@H](CCC(=O)O)C(=O)N[C@@H](CC(C)C)C(=O)N[C@H](C(=O)N[C@@H](CCCNC(=N)N)C(N)=O)[C@@H](C)CC)[C@@H](C)CC)nn2)nn1)C(N)=O)[C@@H](C)CC [CHD1^NEMO],Ki,[1],> 50000 nM
CC(C)C[C@@H](C=O)NC(=O)[C@H](CC(C)C)NC(=O)[C@H](CC(C)C)NC(=O)OCc1ccccc1 [MG132] (Cbz-Leu-Leu-Leu-aldehyde),vFLIP and NEMO protein levels,[2],stabilized vFLIP protein and increased NEMO levels
CC[C@H](C)[C@H](NC(=O)[C@H](CC(C)C)NC(=O)[C@H](CCC(=O)O)NC(=O)[C@H](CC(=O)O)NC(=O)[C@@H](NC(=O)[C@H](CCCCn1cc(COCc2cn(CCCC[C@H](NC(=O)[C@H](CC(C)C)NC(=O)[C@H](CCCNC(=N)N)NC(=O)[C@H](CCCNC(=N)N)NC(=O)[C@@H](NC(=O)[C@H](CCC(=O)NC3CCCCC3)NC(=O)[C@H](CCC(=O)O)NC(=O)[C@H](Cc3c[nH]c4ccccc34)NC(=O)[C@H](CC(C)C)NC(=O)[C@H](CCC(N)=O)NC(=O)[C@H](CCCNC(=N)N)NC(=O)[C@@H](NC(=O)[C@H](Cc3c[nH]c4ccccc34)NC(=O)[C@H](CCC(=O)O)NC(=O)CCNC(=S)Nc3ccc4c(c3)C(=O)OC43c4ccc(O)cc4Oc4cc(O)ccc43)[C@@H](C)CC)[C@@H](C)CC)C(N)=O)nn2)nn1)NC(=O)[C@H](CCCNC(=N)N)NC(=O)[C@H](Cc1ccccc1)NC(=O)[C@H](CC(C)C)NC(=O)[C@H](CCCNC(=N)N)NC(=O)[C@H](Cc1c[nH]cn1)NC(=O)[C@@H](NC(=O)[C@H](CCC(=O)O)NC(C)=O)[C@@H](C)CC)[C@@H](C)CC)C(=O)N[C@@H](CCCNC(=N)N)C(N)=O [FITC-CHD3^NEMO],binding to wild-type NEMO coiled coil,[3],does not bind
same,cellular uptake,"[4]; 500 nM FITC-labeled peptide, 37 °C, live BC-1 cells",enters BC-1 cells
same,cellular uptake at 4 °C / with sodium azide,[4]; 4 °C or 10 mM sodium azide,reduction in cellular uptake
CC(C)NCCCn1c(Sc2cc3c(cc2I)OCO3)nc2c(N)ncnc21 [PU-H71],CC50,[5],63.4 nM
same,CC50,[6],36.9 nM
same,CC50,[7],27.1 nM
same,CC50,[8],337 nM
same,CC50,[9],217 nM
